*1 amine or outer side, *2 acyl side, *3 side chain or, on linkers, in order; H or OH if unused. Where a SMILES comes first, the peptide text is derived from it. Bridges are numbered along the chain shown (N, C = ends). Side-chain parts run from the residue outwards. [ ]: non-standard residue; d: D form. The star is where a group is joined. C20 diacid = O=C(O)CCCCCCCCCCCCCCCCCCC(=O)*; γGlu = O=C(O)[C@H](CCC(=O)[*:2])N[*:1]; AEEA = NCCOCCOCC(=O)O; Aib = CC(C)(N)C(=O)O
Columns and labels:
[1] = biological target: T1, human Glucagon receptor (GCGR) (Homo sapiens, UniProt P47871); assay: cAMP accumulation assay, CHO-K1 cells expressing human GCGR; format: cell-based; details: mean pEC50, Table 10
T1 construct: A cDNA fragment encoding the full-length open reading frame of the human GCGR; expressed in transfected cells; host or cells: CHO-K1, pcDNA3.1+, Lipofectamine 2000
From the text: In the presence of the non-specific cAMP/cGMP phosphodiesterase inhibitor, 3-isobutyl-1-methylxanthine (IBMX), accumulating cAMP can be measured in vitro using common detection methods. Thus, it is possible to estimate an in vitro potency (pEC50) for peptides activating each of these receptors using fit dose-response curves for cAMP accumulation.
A cDNA fragment encoding the full-length open reading frame of the cynomolgus monkey GLP-1R (Genebank accession #XM_028847603 was cloned into pcDNA3.1+ for expression in CHO-K1 cells. A cDNA fragment encoding the full-length open reading frame of the human GCGR (Genebank accession #NM_000160 was cloned into pcDNA3.1+ for expression in CHO-K1 cells. A cDNA fragment encoding the full-length open reading frame of the rat GCGR (Genebank accession #NM_12091 was cloned into pcDNA3.1+ for expression in CHO-K1 cells. A cDNA fragment encoding the full-length open reading frame of the cynomolgus monkey GCGR (Genebank accession #XM_005585255 was cloned into pcDNA3.1+ for expression in CHO-K1 cells.
On day 1, CHO-K1 cells were plated at 1.5 million cells per T75 flask in 90% F12-K media supplemented with 10% FBS. On day 3 cells were transfected with 40 mcg of each expression plasmid using Lipofectamine 2000 transfection reagent. On day 5, cells were dispensed at 1000 cells per well in white 384-well OptiPlates in 5 mcL of assay buffer consisting of 1×HBSS, 5 mM HEPES, 0.5 mM IBMX, and 0.1% casein.
Peptides were serially diluted 4-fold in assay buffer to final concentrations ranging from 1×10^−9 M to 9.5×10^−16 M. Two assay controls consisting of 50 mcM forskolin (cAMP system maximum) or assay buffer only (cAMP system minimum) were also prepared. Five microliters of each peptide-concentration, or assay control, was added to triplicate wells and incubated for thirty minutes at room temperature. During this incubation step a 4× europium labelled cAMP tracer solution and a 4× Ulight®-anti-cAMP solution (consisting of an anti-cAMP monoclonal antibody labelled with Ulight™ dye) was prepared according to the manufacturer's protocol (PerkinElmer LANCE Ultra cAMP kit). Following this incubation, 5 mcL europium labelled cAMP and 5 mcL Ulight anti-cAMP antibody was added to each well. The plate was covered to prevent evaporation and incubated for 60 minutes at room temperature in the dark. Plates were read on an Envision fluorescent plate reader (PerkinElmer).
Test values were first normalized to the system maximum and system minimum averaged values in Excel using the formula: (test value−system min average)/(system max average -system min average)*100. Normalized test values represent a baseline corrected percentage of the system maximum cAMP response induced by forskolin. Data from up to 3 replicate tests were analyzed for each peptide. Potency values were estimated using GraphPad Prism software (v7.04) by fitting data to a 4-parameter logistic curve model: Y=Bottom+(Top−Bottom)/(1+10^((LogEC50−X))). The Hill slope was constrained to 1.0. EC50 values were converted to pEC50 values using the formula: pEC50=−Log (EC50).

[2] = biological target: T2, human GLP-1 receptor (GLP-1R) (Homo sapiens, UniProt P43220); assay: cAMP accumulation assay, CHO-K1 cells stably expressing human GLP-1R; format: cell-based; details: cAMP accumulation, mean pEC50, Table 10
T2 construct: expressed in transfected cells
T2 sequence (P43220 24-463): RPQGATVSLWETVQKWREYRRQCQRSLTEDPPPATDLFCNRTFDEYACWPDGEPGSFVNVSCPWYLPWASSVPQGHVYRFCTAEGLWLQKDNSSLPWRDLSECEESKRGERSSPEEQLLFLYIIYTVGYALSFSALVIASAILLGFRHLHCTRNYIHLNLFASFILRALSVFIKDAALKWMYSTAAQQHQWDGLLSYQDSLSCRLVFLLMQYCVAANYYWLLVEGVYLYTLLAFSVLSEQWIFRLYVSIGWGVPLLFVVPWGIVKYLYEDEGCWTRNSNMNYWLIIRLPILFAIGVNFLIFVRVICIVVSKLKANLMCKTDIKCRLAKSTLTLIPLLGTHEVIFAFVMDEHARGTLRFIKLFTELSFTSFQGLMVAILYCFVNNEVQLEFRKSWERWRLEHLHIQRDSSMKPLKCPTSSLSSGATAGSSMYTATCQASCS

T1 sequence (P47871 26-477): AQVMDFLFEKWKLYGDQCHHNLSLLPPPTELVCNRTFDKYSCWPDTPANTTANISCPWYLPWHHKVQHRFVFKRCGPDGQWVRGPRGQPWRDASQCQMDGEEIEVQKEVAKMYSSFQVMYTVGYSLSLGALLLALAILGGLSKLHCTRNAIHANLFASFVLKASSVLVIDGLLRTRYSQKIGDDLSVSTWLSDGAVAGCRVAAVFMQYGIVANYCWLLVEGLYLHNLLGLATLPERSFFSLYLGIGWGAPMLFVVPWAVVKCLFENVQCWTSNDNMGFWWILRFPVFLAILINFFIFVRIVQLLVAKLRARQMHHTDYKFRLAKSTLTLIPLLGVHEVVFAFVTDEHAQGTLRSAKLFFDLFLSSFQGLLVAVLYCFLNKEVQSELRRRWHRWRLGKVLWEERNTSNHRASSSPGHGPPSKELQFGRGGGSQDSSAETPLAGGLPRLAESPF

Row | Compound | EC50 [1] | EC50 [2]
1 | CC(C)C[C@H](NC(=O)[C@H](Cc1ccc(O)cc1)NC(=O)[C@H](CCCCN)NC(=O)[C@H](CO)NC(=O)[C@H](Cc1ccc(O)cc1)NC(=O)[C@H](CC(=O)O)NC(=O)[C@H](CO)NC(=O)[C@@H](NC(=O)[C@H](Cc1ccccc1)NC(=O)[C@@H](NC(=O)CNC(=O)[C@H](Cc1c[nH]cn1)NC(=O)[C@H](CO)NC(=O)[C@@H](N)Cc1ccc(O)cc1)[C@@H](C)O)[C@@H](C)O)C(=O)N[C@@H](CC(=O)O)C(=O)N[C@@H](CCCCNC(=O)CC[C@H](NC(=O)CC[C@H](NC(=O)COCCOCCNC(=O)CCCCCCCCCCCCCCCCCCC(=O)O)C(=O)O)C(=O)O)C(=O)N[C@@H](CCCCN)C(=O)N[C@@H](Cc1ccc(O)cc1)C(=O)N[C@@H](C)C(=O)N[C@H]1CCC(=O)NCCCC[C@@H](C(=O)N[C@@H](Cc2c[nH]c3ccccc23)C(=O)N[C@@H](CC(C)C)C(=O)N[C@@H](CCC(=O)O)C(=O)N[C@@H](CC(=O)O)C(=O)N[C@@H](CCC(=O)O)C(=O)N2CCC[C@H]2C(=O)N[C@@H](CO)C(=O)N[C@@H](CO)C(=O)NCC(=O)N[C@@H](C)C(=O)N2CCC[C@H]2C(=O)N2CCC[C@H]2C(=O)N2CCC[C@H]2C(=O)N[C@@H](CO)C(=O)O)NC(=O)[C@H](C(C)C)NC(=O)[C@H](Cc2ccccc2)NC(=O)[C@H](CCC(=O)O)NC1=O [Compound A12] (H-YSHGTFTSDYSKYLDK([γGlu-γGlu-AEEA-C20 diacid])KYAEEFVKWLEDEPSSGAPPPS-OH; lactam 20-24) | 1.58 pM | > 1000 pM
2 | CC(C)C[C@H](NC(=O)[C@H](Cc1ccc(O)cc1)NC(=O)[C@H](CCCCN)NC(=O)[C@H](CO)NC(=O)[C@H](Cc1ccc(O)cc1)NC(=O)[C@H](CC(=O)O)NC(=O)[C@H](CO)NC(=O)[C@@H](NC(=O)[C@H](Cc1ccccc1)NC(=O)[C@@H](NC(=O)CNC(=O)[C@H](Cc1c[nH]cn1)NC(=O)[C@H](CO)NC(=O)[C@@H](N)Cc1ccc(O)cc1)[C@@H](C)O)[C@@H](C)O)C(=O)N[C@@H](CC(=O)O)C(=O)N[C@@H](CCCCNC(=O)CC[C@H](NC(=O)CC[C@H](NC(=O)CCCCCCCCCCCCCCCCCCC(=O)O)C(=O)O)C(=O)O)C(=O)N[C@@H](CCCCN)C(=O)N[C@@H](Cc1ccc(O)cc1)C(=O)N[C@@H](C)C(=O)N[C@@H](CCC(N)=O)C(=O)N[C@@H](CCC(=O)O)C(=O)N[C@@H](Cc1ccccc1)C(=O)N[C@H](C(=O)NC(C)(C)C(=O)N[C@@H](Cc1c[nH]c2ccccc12)C(=O)N[C@@H](CC(C)C)C(=O)N[C@@H](CCC(=O)O)C(=O)N[C@@H](CC(=O)O)C(=O)N[C@@H](CCC(=O)O)C(=O)N1CCC[C@H]1C(=O)N[C@@H](CO)C(=O)N[C@@H](CO)C(=O)NCC(=O)N[C@@H](C)C(=O)N1CCC[C@H]1C(=O)N1CCC[C@H]1C(=O)N1CCC[C@H]1C(=O)N[C@@H](CO)C(=O)O)C(C)C [Compound A13] (H-YSHGTFTSDYSKYLDK([γGlu-γGlu-C20 diacid])KYAQEFV[Aib]WLEDEPSSGAPPPS-OH) | 1 pM | > 1000 pM
3 | CC(C)C[C@H](NC(=O)[C@H](Cc1ccc(O)cc1)NC(=O)[C@H](CCCCN)NC(=O)[C@H](CO)NC(=O)[C@H](Cc1ccc(O)cc1)NC(=O)[C@H](CC(=O)O)NC(=O)[C@H](CO)NC(=O)[C@@H](NC(=O)[C@H](Cc1ccccc1)NC(=O)[C@@H](NC(=O)CNC(=O)[C@H](Cc1c[nH]cn1)NC(=O)[C@H](CO)NC(=O)[C@@H](N)Cc1ccc(O)cc1)[C@@H](C)O)[C@@H](C)O)C(=O)N[C@@H](CC(=O)O)C(=O)NC(C)(C)C(=O)N[C@@H](CCCCN)C(=O)N[C@@H](Cc1ccc(O)cc1)C(=O)N[C@@H](C)C(=O)N[C@@H](CCC(N)=O)C(=O)N[C@@H](CCCCNC(=O)CC[C@H](NC(=O)CC[C@H](NC(=O)CCCCCCCCCCCCCCCCCCC(=O)O)C(=O)O)C(=O)O)C(=O)N[C@@H](Cc1ccccc1)C(=O)N[C@H](C(=O)NC(C)(C)C(=O)N[C@@H](Cc1c[nH]c2ccccc12)C(=O)N[C@@H](CC(C)C)C(=O)N[C@@H](CCC(=O)O)C(=O)N[C@@H](CC(=O)O)C(=O)N[C@@H](CCC(=O)O)C(=O)N1CCC[C@H]1C(=O)N[C@@H](CO)C(=O)N[C@@H](CO)C(=O)NCC(=O)N[C@@H](C)C(=O)N1CCC[C@H]1C(=O)N1CCC[C@H]1C(=O)N1CCC[C@H]1C(=O)N[C@@H](CO)C(=O)O)C(C)C [Compound A14] (H-YSHGTFTSDYSKYLD[Aib]KYAQK([γGlu-γGlu-C20 diacid])FV[Aib]WLEDEPSSGAPPPS-OH; N-terminus assumed) | 6.31 pM | > 1000 pM
4 | CC(C)C[C@H](NC(=O)[C@H](Cc1ccc(O)cc1)NC(=O)[C@H](CCCCN)NC(=O)[C@H](CO)NC(=O)[C@H](Cc1ccc(O)cc1)NC(=O)[C@H](CC(=O)O)NC(=O)[C@H](CO)NC(=O)[C@@H](NC(=O)[C@H](Cc1ccccc1)NC(=O)[C@@H](NC(=O)CNC(=O)[C@H](Cc1c[nH]cn1)NC(=O)[C@H](CO)NC(=O)[C@@H](N)Cc1ccc(O)cc1)[C@@H](C)O)[C@@H](C)O)C(=O)N[C@@H](CC(=O)O)C(=O)N[C@@H](CCCCNC(=O)CC[C@H](NC(=O)CC[C@H](NC(=O)COCCOCCNC(=O)CCCCCCCCCCCCCCCCCCC(=O)O)C(=O)O)C(=O)O)C(=O)N[C@@H](CCCCN)C(=O)N[C@@H](Cc1ccc(O)cc1)C(=O)N[C@@H](C)C(=O)N[C@@H](CCC(N)=O)C(=O)N[C@@H](CCC(=O)O)C(=O)N[C@@H](Cc1ccccc1)C(=O)N[C@H](C(=O)NC(C)(C)C(=O)N[C@@H](Cc1c[nH]c2ccccc12)C(=O)N[C@@H](CC(C)C)C(=O)N[C@@H](CCC(=O)O)C(=O)N(C)[C@@H](CCC(=O)O)C(=O)N[C@@H](CCC(=O)O)C(=O)N1CCC[C@H]1C(=O)N[C@@H](CO)C(=O)N[C@@H](CO)C(=O)NCC(=O)N[C@@H](C)C(=O)N1CCC[C@H]1C(=O)N1CCC[C@H]1C(=O)N1CCC[C@H]1C(=O)N[C@@H](CO)C(=O)O)C(C)C [Compound A18] | 39.8 pM | > 1000 pM
5 | CC(C)C[C@H](NC(=O)[C@H](Cc1ccc(O)cc1)NC(=O)[C@H](CCCCN)NC(=O)[C@H](CO)NC(=O)[C@H](Cc1ccc(O)cc1)NC(=O)[C@H](CC(=O)O)NC(=O)[C@H](CO)NC(=O)[C@@H](NC(=O)[C@H](Cc1ccccc1)NC(=O)[C@@H](NC(=O)CNC(=O)[C@H](Cc1c[nH]cn1)NC(=O)[C@H](CO)NC(=O)[C@@H](N)Cc1ccc(O)cc1)[C@@H](C)O)[C@@H](C)O)C(=O)N[C@@H](CC(=O)O)C(=O)N[C@@H](CCCCNC(=O)CC[C@H](NC(=O)CC[C@H](NC(=O)COCCOCCNC(=O)CCCCCCCCCCCCCCCCCCC(=O)O)C(=O)O)C(=O)O)C(=O)N[C@@H](CCCCN)C(=O)N[C@@H](Cc1ccc(O)cc1)C(=O)N[C@@H](C)C(=O)N[C@@H](CCCCN)C(=O)N[C@@H](CCC(=O)O)C(=O)N[C@@H](Cc1ccccc1)C(=O)N[C@H](C(=O)NC(C)(C)C(=O)N[C@@H](Cc1c[nH]c2ccccc12)C(=O)N[C@@H](CC(C)C)C(=O)N[C@@H](CCC(=O)O)C(=O)N[C@@H](CO)C(=O)N[C@@H](CCC(=O)O)C(=O)N1CCC[C@H]1C(=O)N[C@@H](CO)C(=O)N[C@@H](CO)C(=O)NCC(=O)N[C@@H](C)C(=O)N1CCC[C@H]1C(=O)N1CCC[C@H]1C(=O)N1CCC[C@H]1C(=O)N[C@@H](CO)C(=O)O)C(C)C [Compound A22] (H-YSHGTFTSDYSKYLDK([γGlu-γGlu-AEEA-C20 diacid])KYAKEFV[Aib]WLESEPSSGAPPPS-OH; N-terminus assumed) | 2 pM | > 1000 pM
